Paper PMC4138601 (Analytical and bioanalytical chemistry, 2012)

How the values were obtained:
[1] = target: T1, Sphingomyelinase from human placenta (human L-ASM) (Homo sapiens, UniProt P17405); assay: SMase assay using HMU-PC profluorescence substrate; type: biochemical; details: maximal inhibition, artificial substrate HMU-PC
T1 sequence (P17405 47-631): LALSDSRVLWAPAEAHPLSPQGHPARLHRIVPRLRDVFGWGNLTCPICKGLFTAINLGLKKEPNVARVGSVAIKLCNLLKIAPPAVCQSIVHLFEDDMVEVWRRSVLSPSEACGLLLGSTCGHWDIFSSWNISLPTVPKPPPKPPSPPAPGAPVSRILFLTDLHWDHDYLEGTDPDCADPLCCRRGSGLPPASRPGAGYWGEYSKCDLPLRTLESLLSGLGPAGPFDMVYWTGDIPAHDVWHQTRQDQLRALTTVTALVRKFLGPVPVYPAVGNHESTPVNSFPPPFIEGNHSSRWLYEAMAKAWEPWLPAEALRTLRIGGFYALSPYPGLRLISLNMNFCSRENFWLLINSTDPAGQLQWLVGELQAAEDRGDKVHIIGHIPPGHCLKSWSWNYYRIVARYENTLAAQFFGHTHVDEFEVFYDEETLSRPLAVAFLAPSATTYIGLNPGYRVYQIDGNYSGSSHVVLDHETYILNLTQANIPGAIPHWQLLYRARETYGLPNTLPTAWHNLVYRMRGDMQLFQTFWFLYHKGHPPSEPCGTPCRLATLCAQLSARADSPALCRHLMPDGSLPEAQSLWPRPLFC

[2] = target: T1, Sphingomyelinase from human placenta (human L-ASM); assay: SMase assay with natural substrate sphingomyelin; type: biochemical; details: maximal inhibition; for Maximal resp., natural substrate (pH 5.0): pH 5.0 buffer; for Maximal resp., natural substrate (pH 6.5): pH 6.5 buffer

| SMILES | Maximal resp., HMU-PC substrate (pH 5.0) [1] [%] | Maximal resp., natural substrate (pH 5.0) [2] [%] | Maximal resp., natural substrate (pH 6.5) [2] [%] |
| --- | --- | --- | --- |
| O=C1CC(c2ccccc2)CC(=O)C1CS(=O)(=O)c1ccccc1 (stereo not drawn) [MLS000720877] | 99.2 | 31.1 | 61.6 |
| COC(=O)C1=C(C)N(Cc2ccc(C)cc2)C(=O)/C1=C\c1ccc(O)c(OC)c1 [MLS000574110] | 82.1 | 79.1 | 84.8 |
| S=c1nc(C2CC2)[nH]c2ccccc12 [MLS000097294] | 99.1 | 103.2 | 104.4 |
| O=c1c(O)c(-c2cccs2)oc2ccccc12 [MLS000097140] | 6.2 | 81.7 | 82.7 |
| Clc1ccc(SCCOCCN2CCCCCC2)cc1.O=C(O)C(=O)O [MLS001164567] | 15.8 | 97.8 | 100.7 |
| COc1ccc(C2=NN(C(=O)COC(=O)c3ccc(S(C)(=O)=O)c([N+](=O)[O-])c3)C(c3ccco3)C2)cc1 (stereo not drawn) [MLS002248315] | 31.4 | 0.8 | 8.6 |
| CCS(=O)(=O)C1=NN2C(=N)/C(=C\c3ccc(OC(=O)c4ccco4)cc3)C(=O)N=C2S1 [MLS000950682] | 79.0 | 43.4 | 71.2 |
| COc1cc(C(=O)Nc2scc(-c3ccc(Br)cc3)c2C(=O)O)cc(OC)c1OC [MLS001164606] | 51.8 | 9.1 | 26.8 |
| O=S(=O)(Nc1ccc(N=Nc2ccc(O)c3ccccc23)cc1)c1ccccc1 [MLS000707545] | 93.4 | 72.0 | 77.2 |
